# Several values for one entry are separate records, joined by “and”; a condition that tells them apart may be missing. Identical values can stand only once.
# Legend:
# CHO K1 cells (WTP4) = type: cell-based, Chinese hamster
# CHO K1 cells = type: cell-based, Chinese hamster
# HeLa cells = type: cell-based, human
compound,measurement,setting,value
"CN[C@@H]1C[C@H]2O[C@@](C)([C@@H]1OC)n1c3ccccc3c3c4c(c5c6ccccc6n2c5c31)C(=O)NC4 [Staurosporine, staurosporine]",% G0/G1,CHO K1 cells (WTP4),42.9% and 41.8%
same,% G2/M,CHO K1 cells (WTP4),13.6% and 12.2%
same,apoptosis induction by TUNEL staining (in words),CHO K1 cells,complete conversion of cells
same,apoptosis induction by PARP cleavage,HeLa cells,apoptosis induction

# From patent publication US9890369B2 (priority 2013, dated 2018)
